From patent publication US20220187282A1, “CARDIOMYOCYTE PROLIFERATION” (The Council of the Queensland Institute of Medical Research, priority 2019, published 2022)
Like-named read-outs stand apart in the source and are kept apart here.

Assays:
Format in all cases: biochemical
kinases [1] = biological target: kinases (Homo sapiens, UniProt O15146); details: MUSK *Mn* FRET-Z-Lyte SP; Test Conc(μM):ATP Conc(μM) 1:50
kinases [2] = biological target: kinases (Homo sapiens, UniProt O15264); details: MAPK13 (p38 delta) Z-Lyte SP; Test Conc(μM):ATP Conc(μM) 1:10
kinases [3] = biological target: kinases (Homo sapiens, UniProt P07949); details: RET Hu Phos FRET-Z-Lyte SP; Test Conc(μM):ATP Conc(μM) 1:10
kinases [4] = biological target: kinases (Homo sapiens, UniProt P14616); details: INSRR (IRR) *Mn* Z-Lyte SP; Test Conc(μM):ATP Conc(μM) 1:50
kinases [5] = biological target: kinases (Homo sapiens, UniProt P27361); details: MAPK3 (ERK1) FRET-Z-Lyte SP; Test Conc(μM):ATP Conc(μM) 1:50
kinases [6] = biological target: kinases (Homo sapiens, UniProt P29322); details: EPHA8 FRET-Z-Lyte SP; Test Conc(μM):ATP Conc(μM) 1:100
kinases [7] = biological target: kinases (Homo sapiens, UniProt P36888); details: FLT3 Hu Phos FRET-Z-Lyte SP; Test Conc(μM):ATP Conc(μM) 1:500
kinases [8] = biological target: kinases (Homo sapiens, UniProt P42684); details: ABL2 (Arg) FRET-Z-Lyte SP; Test Conc(μM):ATP Conc(μM) 1:25
kinases [9] = biological target: kinases (Homo sapiens, UniProt P53355); details: DAPK1 FRET-Adapta SP; Test Conc(μM):ATP Conc(μM) 1:5
kinases [10] = biological target: kinases (Homo sapiens, UniProt P53671); details: LIMK2 FRET-Lantha SP; Test Conc(μM) 1
kinases [11] = biological target: kinases (Homo sapiens, UniProt P53778); details: MAPK12 (p38 gamma) Z-Lyte SP; Test Conc(μM):ATP Conc(μM) 1:10
kinases [12] = biological target: kinases (Homo sapiens, UniProt Q02156); details: PRKCE (PKC epsilon) Z-Lyte SP; Test Conc(μM):ATP Conc(μM) 1:25
kinases [13] = biological target: kinases (Homo sapiens, UniProt Q13177); details: PAK2 (PAK65) FRET-Z-Lyte SP; Test Conc(μM):ATP Conc(μM) 1:75
kinases [14] = biological target: kinases (Homo sapiens, UniProt Q14289); details: PTK2B (FAK2) *Mn* Z-Lyte SP; Test Conc(μM):ATP Conc(μM) 1:5
kinases [15] = biological target: kinases (Homo sapiens, UniProt Q15303); details: ERBB4 (HER4) *Mn* Z-Lyte SP; Test Conc(μM):ATP Conc(μM) 1:5
kinases [16] = biological target: kinases (Homo sapiens, UniProt Q16539)
kinases [17] = biological target: kinases (Homo sapiens, UniProt Q16644); details: MAPKAPK3 FRET-Z-Lyte SP; Test Conc(μM):ATP Conc(μM) 1:200
kinases [18] = biological target: kinases (Homo sapiens, UniProt Q5VT25); details: CDC42 BPA (MRCKA) Z-Lyte SP; Test Conc(μM):ATP Conc(μM) 1:5
kinases [19] = biological target: kinases (Homo sapiens, UniProt Q6VAB6); details: KSR2 FRET-Z-Lyte SP; Test Conc(μM):ATP Conc(μM) 1:10
kinases [20] = biological target: kinases (Homo sapiens, UniProt Q86SG6); details: NEK8 FRET-Lantha SP; Test Conc(μM) 1
kinases [21] = biological target: kinases (Homo sapiens, UniProt Q8NE63); details: HIPK4 FRET-Z-Lyte SP; Test Conc(μM):ATP Conc(μM) 1:50
kinases [22] = biological target: kinases (Homo sapiens, UniProt Q8TDC3); details: BRSK1 (SAD1) FRET-Z-Lyte SP; Test Conc(μM):ATP Conc(μM) 1:25
kinases [23] = biological target: kinases (Homo sapiens, UniProt Q96GD4); details: AURKB (Aurora B) Z-Lyte SP; Test Conc(μM):ATP Conc(μM) 1:75
kinases [24] = biological target: kinases (Homo sapiens, UniProt Q9HBH9); details: MKNK2 (MNK2) FRET-Lantha SP; Test Conc(μM) 1
kinases [25] = biological target: kinases (Homo sapiens, UniProt Q9NQU5); details: PAK6 FRET-Z-Lyte SP; Test Conc(μM):ATP Conc(μM) 1:10
kinases [26] = biological target: kinases (Homo sapiens, UniProt Q9P289); details: MST4 FRET-Z-Lyte SP; Test Conc(μM):ATP Conc(μM) 1:25
kinases [27] = biological target: kinases (Homo sapiens, UniProt Q9UF33); details: EPHA6 FRET-Lantha SP; Test Conc(μM) 1
kinases [28] = biological target: kinases (Homo sapiens, UniProt Q9Y2H1); details: STK38L (NDR2) FRET-Lantha SP; Test Conc(μM) 1
[29] = MAPK14 (p38a) Direct Z-Lyte SP, Test Conc(μM):ATP Conc(μM) 1:500
[30] = MAPK14 (p38a)Cascade Z-Lyte SP, Test Conc(μM):ATP Conc(μM) 1:100

Sequence of kinases (Homo sapiens, UniProt Q16539) (Q16539 whole entry): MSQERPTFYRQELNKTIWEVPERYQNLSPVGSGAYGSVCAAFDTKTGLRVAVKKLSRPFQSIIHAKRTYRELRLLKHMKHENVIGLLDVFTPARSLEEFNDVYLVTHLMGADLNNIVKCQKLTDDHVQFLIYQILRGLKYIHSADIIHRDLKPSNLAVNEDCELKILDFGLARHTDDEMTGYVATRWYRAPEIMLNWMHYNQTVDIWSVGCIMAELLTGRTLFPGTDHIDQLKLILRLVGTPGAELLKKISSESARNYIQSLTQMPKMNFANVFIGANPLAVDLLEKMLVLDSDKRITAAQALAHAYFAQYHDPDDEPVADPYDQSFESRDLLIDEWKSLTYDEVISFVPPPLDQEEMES
Sequence of kinases (Homo sapiens, UniProt P53671) (P53671 whole entry): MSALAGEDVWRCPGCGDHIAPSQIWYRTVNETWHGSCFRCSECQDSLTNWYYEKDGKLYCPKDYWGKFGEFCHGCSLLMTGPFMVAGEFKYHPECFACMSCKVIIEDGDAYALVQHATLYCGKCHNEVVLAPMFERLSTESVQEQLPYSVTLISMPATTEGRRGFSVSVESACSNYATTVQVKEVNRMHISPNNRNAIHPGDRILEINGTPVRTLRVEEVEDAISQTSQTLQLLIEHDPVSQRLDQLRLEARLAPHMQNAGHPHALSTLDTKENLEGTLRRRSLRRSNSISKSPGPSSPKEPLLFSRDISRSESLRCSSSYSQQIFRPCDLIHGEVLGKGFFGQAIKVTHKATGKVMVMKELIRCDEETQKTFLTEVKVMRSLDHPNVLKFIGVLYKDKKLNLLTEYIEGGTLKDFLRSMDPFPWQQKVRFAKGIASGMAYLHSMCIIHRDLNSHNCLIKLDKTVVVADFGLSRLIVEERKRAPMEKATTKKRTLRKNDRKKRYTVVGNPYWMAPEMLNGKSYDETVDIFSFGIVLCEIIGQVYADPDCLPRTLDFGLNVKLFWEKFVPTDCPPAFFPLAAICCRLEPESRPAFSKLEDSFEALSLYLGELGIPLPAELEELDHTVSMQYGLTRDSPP
Sequence of kinases (Homo sapiens, UniProt Q9HBH9) (Q9HBH9 whole entry): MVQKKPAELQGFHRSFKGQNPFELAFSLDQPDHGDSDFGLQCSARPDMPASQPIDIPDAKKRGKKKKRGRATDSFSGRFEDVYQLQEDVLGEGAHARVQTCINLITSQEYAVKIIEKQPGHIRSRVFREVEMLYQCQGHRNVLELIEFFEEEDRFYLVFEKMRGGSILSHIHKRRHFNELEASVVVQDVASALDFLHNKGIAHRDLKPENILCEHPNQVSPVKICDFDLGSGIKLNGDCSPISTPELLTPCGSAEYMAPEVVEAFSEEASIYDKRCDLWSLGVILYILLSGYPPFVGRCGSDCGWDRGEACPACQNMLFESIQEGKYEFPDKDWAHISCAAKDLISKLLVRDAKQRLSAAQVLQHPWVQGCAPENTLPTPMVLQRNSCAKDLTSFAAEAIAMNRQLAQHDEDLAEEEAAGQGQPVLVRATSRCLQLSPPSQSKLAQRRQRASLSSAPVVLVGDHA
Sequence of kinases (Homo sapiens, UniProt Q5VT25) (Q5VT25 whole entry): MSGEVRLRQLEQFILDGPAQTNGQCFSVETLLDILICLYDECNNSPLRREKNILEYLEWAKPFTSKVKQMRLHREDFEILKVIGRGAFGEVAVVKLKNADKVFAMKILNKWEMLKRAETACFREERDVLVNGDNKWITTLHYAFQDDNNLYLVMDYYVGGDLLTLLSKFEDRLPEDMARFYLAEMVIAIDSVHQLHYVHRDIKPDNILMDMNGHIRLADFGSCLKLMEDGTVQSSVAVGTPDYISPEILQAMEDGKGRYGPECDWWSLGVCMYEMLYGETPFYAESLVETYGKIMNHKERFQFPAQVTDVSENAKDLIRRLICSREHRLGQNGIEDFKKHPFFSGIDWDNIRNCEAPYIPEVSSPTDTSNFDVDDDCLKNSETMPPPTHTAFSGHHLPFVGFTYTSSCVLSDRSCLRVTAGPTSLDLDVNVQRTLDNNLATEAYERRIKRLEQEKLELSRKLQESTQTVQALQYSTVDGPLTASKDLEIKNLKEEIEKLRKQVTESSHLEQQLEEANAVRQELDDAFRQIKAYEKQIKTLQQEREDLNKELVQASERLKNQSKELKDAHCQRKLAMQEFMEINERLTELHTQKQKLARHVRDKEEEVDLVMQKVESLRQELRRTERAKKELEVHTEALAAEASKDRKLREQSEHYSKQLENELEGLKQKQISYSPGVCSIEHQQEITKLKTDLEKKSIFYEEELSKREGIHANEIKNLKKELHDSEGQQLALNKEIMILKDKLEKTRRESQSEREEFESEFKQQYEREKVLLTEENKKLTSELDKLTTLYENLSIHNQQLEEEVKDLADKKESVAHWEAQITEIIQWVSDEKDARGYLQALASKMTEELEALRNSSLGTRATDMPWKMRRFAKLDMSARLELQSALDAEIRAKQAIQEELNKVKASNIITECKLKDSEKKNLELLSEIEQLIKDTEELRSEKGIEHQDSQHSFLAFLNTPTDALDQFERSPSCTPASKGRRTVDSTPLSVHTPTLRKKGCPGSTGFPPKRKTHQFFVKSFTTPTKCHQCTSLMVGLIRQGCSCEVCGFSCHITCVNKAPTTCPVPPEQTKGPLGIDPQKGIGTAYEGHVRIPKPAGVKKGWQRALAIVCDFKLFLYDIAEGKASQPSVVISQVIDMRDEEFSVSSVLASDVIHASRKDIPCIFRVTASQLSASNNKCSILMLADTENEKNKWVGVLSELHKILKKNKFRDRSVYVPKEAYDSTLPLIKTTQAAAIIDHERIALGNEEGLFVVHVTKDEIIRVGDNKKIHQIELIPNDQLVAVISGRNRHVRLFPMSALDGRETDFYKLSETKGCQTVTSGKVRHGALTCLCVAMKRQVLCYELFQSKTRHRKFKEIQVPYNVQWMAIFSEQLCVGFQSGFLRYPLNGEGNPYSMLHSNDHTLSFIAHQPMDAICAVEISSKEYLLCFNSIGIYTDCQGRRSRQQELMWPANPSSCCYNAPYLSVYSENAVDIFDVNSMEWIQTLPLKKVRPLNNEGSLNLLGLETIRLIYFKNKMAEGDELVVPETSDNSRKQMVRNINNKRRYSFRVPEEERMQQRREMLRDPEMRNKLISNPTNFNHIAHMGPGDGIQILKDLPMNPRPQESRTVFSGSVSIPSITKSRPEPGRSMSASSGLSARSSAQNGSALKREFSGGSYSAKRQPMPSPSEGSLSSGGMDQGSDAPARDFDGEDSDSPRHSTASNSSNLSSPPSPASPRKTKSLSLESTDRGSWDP
Sequence of kinases (Homo sapiens, UniProt Q13177) (Q13177 whole entry): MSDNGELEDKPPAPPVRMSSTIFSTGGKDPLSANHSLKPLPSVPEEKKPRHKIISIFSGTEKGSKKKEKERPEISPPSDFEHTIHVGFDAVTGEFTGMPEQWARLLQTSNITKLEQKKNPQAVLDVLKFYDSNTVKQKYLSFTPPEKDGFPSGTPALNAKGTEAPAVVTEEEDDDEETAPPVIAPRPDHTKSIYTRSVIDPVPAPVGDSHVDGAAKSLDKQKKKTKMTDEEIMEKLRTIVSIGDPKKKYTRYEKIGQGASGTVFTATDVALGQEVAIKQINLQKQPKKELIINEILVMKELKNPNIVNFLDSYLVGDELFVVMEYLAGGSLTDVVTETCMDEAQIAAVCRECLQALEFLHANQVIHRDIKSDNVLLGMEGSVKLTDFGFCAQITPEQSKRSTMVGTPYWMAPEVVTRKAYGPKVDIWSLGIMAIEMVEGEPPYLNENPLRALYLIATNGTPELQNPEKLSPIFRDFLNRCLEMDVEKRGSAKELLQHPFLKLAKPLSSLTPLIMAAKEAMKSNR
Sequence of kinases (Homo sapiens, UniProt Q16644) (Q16644 whole entry): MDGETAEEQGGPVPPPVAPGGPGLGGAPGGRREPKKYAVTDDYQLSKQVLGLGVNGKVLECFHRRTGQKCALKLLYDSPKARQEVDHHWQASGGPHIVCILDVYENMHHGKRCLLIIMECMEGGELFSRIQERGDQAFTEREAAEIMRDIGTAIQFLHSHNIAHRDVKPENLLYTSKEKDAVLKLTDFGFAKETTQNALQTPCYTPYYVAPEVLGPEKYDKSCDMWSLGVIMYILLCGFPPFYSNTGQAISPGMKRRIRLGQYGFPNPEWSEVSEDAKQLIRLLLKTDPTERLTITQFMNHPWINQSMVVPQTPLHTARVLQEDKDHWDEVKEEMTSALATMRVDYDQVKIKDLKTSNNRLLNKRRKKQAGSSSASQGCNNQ
Sequence of kinases (Homo sapiens, UniProt P36888) (P36888 27-993): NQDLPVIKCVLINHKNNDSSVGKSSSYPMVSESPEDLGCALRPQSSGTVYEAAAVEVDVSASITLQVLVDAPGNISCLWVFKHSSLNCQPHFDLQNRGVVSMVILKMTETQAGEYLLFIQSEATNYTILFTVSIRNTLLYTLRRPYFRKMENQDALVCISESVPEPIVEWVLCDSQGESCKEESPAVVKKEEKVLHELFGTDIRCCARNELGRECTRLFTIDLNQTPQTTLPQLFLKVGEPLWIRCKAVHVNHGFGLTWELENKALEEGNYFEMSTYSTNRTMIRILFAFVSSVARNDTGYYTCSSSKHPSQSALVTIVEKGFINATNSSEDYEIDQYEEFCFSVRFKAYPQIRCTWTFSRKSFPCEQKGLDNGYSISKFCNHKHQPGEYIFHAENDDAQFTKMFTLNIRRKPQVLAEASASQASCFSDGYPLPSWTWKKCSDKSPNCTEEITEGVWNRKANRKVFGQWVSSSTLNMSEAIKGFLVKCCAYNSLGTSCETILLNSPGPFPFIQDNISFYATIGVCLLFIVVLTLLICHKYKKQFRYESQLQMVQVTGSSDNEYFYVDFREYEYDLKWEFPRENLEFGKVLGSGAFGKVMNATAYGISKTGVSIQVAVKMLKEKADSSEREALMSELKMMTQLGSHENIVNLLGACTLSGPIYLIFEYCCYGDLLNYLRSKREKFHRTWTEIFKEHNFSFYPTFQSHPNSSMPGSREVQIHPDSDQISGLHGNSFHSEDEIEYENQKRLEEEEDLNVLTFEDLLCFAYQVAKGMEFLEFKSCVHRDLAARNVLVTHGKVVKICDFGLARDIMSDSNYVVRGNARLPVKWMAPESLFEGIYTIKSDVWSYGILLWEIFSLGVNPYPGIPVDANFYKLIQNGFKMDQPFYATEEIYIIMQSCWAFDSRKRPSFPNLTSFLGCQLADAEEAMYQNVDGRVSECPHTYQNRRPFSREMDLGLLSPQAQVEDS

| Structure (SMILES) | Mean Inhib (%) (kinases [1]) | Mean Inhib (%) (kinases [2]) | Mean Inhib (%) (kinases [3]) | Mean Inhib (%) (kinases [4]) | Mean Inhib (%) (kinases [5]) | Mean Inhib (%) (kinases [6]) | Mean Inhib (%) (kinases [7]) | Mean Inhib (%) (kinases [8]) | Mean Inhib (%) (kinases [9]) | Mean Inhib (%) (kinases [10]) | Mean Inhib (%) (kinases [11]) | Mean Inhib (%) (kinases [12]) | Mean Inhib (%) (kinases [13]) | Mean Inhib (%) (kinases [14]) | Mean Inhib (%) (kinases [15]) | Mean Inhib (%) (kinases [16]; [29]) | Mean Inhib (%) (kinases [16]; [30]) | Mean Inhib (%) (kinases [17]) | Mean Inhib (%) (kinases [18]) | Mean Inhib (%) (kinases [19]) | further results |
| --- | --- | --- | --- | --- | --- | --- | --- | --- | --- | --- | --- | --- | --- | --- | --- | --- | --- | --- | --- | --- | --- |
| Cc1cc(Oc2ccnc(Nc3ccc(S(N)(=O)=O)cc3)c2)c(-c2ccccn2)nc1C [compound 65] | 17.2 | 3.7 | 31.0 | 5.5 | 1.1 | 64.7 | 8.9 | 82.6 | −2.6 | 22.2 | 4.1 | 10.0 | 12.5 | −2.5 | 3.4 | 19.9 | 13.5 | −1.3 | −2.0 | 1.6 | Mean Inhib (%) (kinases [20]): −7.5%; Mean Inhib (%) (kinases [21]): 8.8%; Mean Inhib (%) (kinases [22]): 4.7%; Mean Inhib (%) (kinases [23]): 2.7%; Mean Inhib (%) (kinases [24]): 2.7%; Mean Inhib (%) (kinases [25]): 16.2%; Mean Inhib (%) (kinases [26]): −9.9%; Mean Inhib (%) (kinases [27]): 54.2%; Mean Inhib (%) (kinases [28]): 5.5% |
| Cc1ccc(NC(=O)c2ccnc(N3CCOCC3)c2)cc1Nc1ccnc(N2CC(C)OC(C)C2)n1 (stereo not shown) [compound 3] | 19.5 | 4.7 | 22.8 | 13.5 | 5.1 | 8.6 | −9.3 | −1.3 | 1.4 | 0.5 | 5.1 | 12.2 | 14.5 | 8.5 | 0.8 | 79.8 | 59.0 | 1.7 | −2.0 | 3.9 | Mean Inhib (%) (kinases [20]): −9.5%; Mean Inhib (%) (kinases [21]): −2.8%; Mean Inhib (%) (kinases [22]): 2.2%; Mean Inhib (%) (kinases [23]): 4.9%; Mean Inhib (%) (kinases [24]): 2.2%; Mean Inhib (%) (kinases [25]): 15.9%; Mean Inhib (%) (kinases [26]): 16.7%; Mean Inhib (%) (kinases [27]): 1.9%; Mean Inhib (%) (kinases [28]): 15.6% |
